This passage reports Binding % results from patent publication US10111874B2, “Combination therapies for treatment of cancer” (Araxes Pharma LLC, priority 2014, dated 2018).

Each structure is given as a SMILES string.

For one test, the target named is T1, KRAS G12C 1-169, his-tagged protein, GDP-loaded (Homo sapiens, UniProt P01116, G12C).
T1 construct: KRAS G12C 1-169, his-tagged protein, GDP-loaded
T1 sequence (P01116 1-169 isoform P01116-2 G12C): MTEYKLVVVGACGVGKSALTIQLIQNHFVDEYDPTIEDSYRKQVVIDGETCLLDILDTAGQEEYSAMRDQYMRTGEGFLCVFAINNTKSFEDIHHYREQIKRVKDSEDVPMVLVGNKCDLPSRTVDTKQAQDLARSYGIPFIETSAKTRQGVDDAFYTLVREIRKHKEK
Briefly: Biochemical assay: covalent binding to KRAS G12C analyzed by mass spectrometry. Note: test concentration or dose not given here. As to conditions: compounds 247-342, measured at 30 min.
As to `C=CC(=O)N1CCN(c2ncnc3cc(-c4cc(O)cc5ccccc45)c(Cl)cc23)CC1` [Compound I-251, 1-(4-(6-chloro-7-(3-hydroxynaphthalen-1-yl)quinazolin-4-yl)piperazin-1-yl)prop-2-en-1-one], the Binding % entry is reported as “++++ (++++indicates binding activity greater than 75%)”.
The same measure, in the same setting: in the case of `C#CC1CN(c2ncnc3c(F)c(-c4ccccc4F)c(Cl)cc23)CCN1C(=O)C=C` (stereo not drawn) [Compound I-252, 1-(4-(6-chloro-8-fluoro-7-(2-fluorophenyl)quinazolin-4-yl)-2-ethynylpiperazin-1-yl)prop-2-en-1-one] it was “++++ (++++indicates binding activity greater than 75%)”; in that of `C=CC(=O)N1CCN(c2nc(NCCN(C)C)nc3c(F)c(-c4c(C)ccc5[nH]ncc45)c(Cl)cc23)CC1` [Compound I-253], “++++ (++++indicates binding activity greater than 75%)”; in that of `C=CC(=O)N1CCN(c2ncnc3c(F)c(-c4c(C)c(C)cc5cn[nH]c45)c(Cl)cc23)CC1` [Compound I-255, 1-(4-(6-chloro-7-(5,6-dimethyl-1H-indazol-7-yl)-8-fluoroquinaolin-4-yl)piperazin-1-yl)prop-2-en-1-one], “+++ (+++indicates binding activity greater than 50% and up to 75%)”.
The same measure, in the same setting: for `C=CC(=O)N1CCN(c2nc(NC)nc3c(F)c(-c4c(C)ccc5[nH]ncc45)c(Cl)cc23)CC1` [Compound I-257, 1-(4-(6-chloro-8-fluoro-7-(5-methyl-1H-indazol-4-yl)-2-(methylamino)quinazolin-4-yl)piperazin-1-yl)prop-2-en-1-one] the value was “++++ (++++indicates binding activity greater than 75%)”.
With `C=CC(=O)N1CCN(c2cnnc3cc(-c4c(O)ccc5ccccc45)c(Cl)cc23)CC1` [Compound I-258, 1-(4-(6-chloro-7-(2-hydroxynaphthalen-1-yl)cinnolin-4-yl)piperazin-1-yl)prop-2-en-1-one], the Binding % entry is “++ (++indicates binding activity greater than 25% and up to 50%)”.
Still for that read-out and setting: for `Cc1coc(/C=C(\C#N)C(=O)N2CCN(c3ncnc4cc(-c5ccccc5F)c(Cl)cc34)CC2)n1` [Compound I-259, (E)-2-(4-(6-chloro-7-(2-fluorophenyl)quinazolin-4-yl)piperazine-1-carbonyl)-3-(4-methyloxazol-2-yl)acrylonitrile] the value was “+++ (+++indicates binding activity greater than 50% and up to 75%)”.
On the same count and under the same terms, for `C=CC(=O)N1CCN(c2c(C#N)cnc3cc(-c4c(O)ccc5ccccc45)c(Cl)cc23)CC1` [Compound I-260, 4-(4-acryloylpiperazin-1-yl)-6-chloro-7-(2-hydroxynaphthalen-1-yl)quinoline-3-carbonitrile] the value was “++ (++indicates binding activity greater than 25% and up to 50%)”; for `CC(C)(/C=C(\C#N)C(=O)N1CCN(c2ncnc3cc(-c4ccccc4F)c(Cl)cc23)CC1)CO` [Compound I-261, (E)-2-(4-(6-chloro-7-(2-fluorophenyl)quinazolin-4-yl)piperazine-1-carbonyl)-5-hydroxy-4,4-dimethylpent-2-enenitrile], “+ (+indicates binding activity from 5% to 25%)”; for `N#C/C=C\C(=O)N1CCN(c2ncnc3cc(-c4ccc(F)cc4F)c(Cl)cc23)CC1` [Compound I-263, (Z)-4-(4-(6-chloro-7-(2,4-difluorophenyl)quinaozlin-4-yl)piperazin-1-yl)-4-oxobut-2-enenitrile], “+ (+indicates binding activity from 5% to 25%)”.
For the compound `C=CC(=O)N1CCN(c2ncnc3cc(-c4cc(Cl)cc5cn[nH]c45)c(Cl)cc23)CC1` [Compound I-264, 1-(4-(6-chloro-7-(5-chloro-1H-indazol-7-yl)quinazolin-4-yl)piperazin-1-yl)prop-2-en-1-one], the Binding % result is “++ (++indicates binding activity greater than 25% and up to 50%)”.
For `C=CC(=O)N1CCN(c2ncnc3cc(-c4c(O)cccc4C#N)c(Cl)cc23)CC1` [Compound I-265, 2-(4-(4-acryloylpiperazin-1-yl)-6-chloroquinazolin-7-yl)-3-hydroxybenzonitrile], the Binding % entry was “+ (+indicates binding activity from 5% to 25%)”.
`C=CC(=O)N1CCN(c2ncnc3cc(-c4c(Cl)ccc5[nH]ncc45)c(Cl)cc23)CC1` [Compound I-266, 1-(4-(6-chloro-7-(5-chloro-1H-indazol-4-yl)quinazolin-4-yl)piperazin-1-yl)prop-2-en-1-one]: the Binding % entry is “+++ (+++indicates binding activity greater than 50% and up to 75%)”.
Same read-out and setting: for `C=CC(=O)N1CCN(c2ncnc3cc(-c4cc(C(C)(C)O)ccc4F)c(Cl)cc23)CC1` [Compound I-267, 1-(4-(6-chloro-7-(2-fluoro-5-(2-hydroxypropan-2-yl)phenyl)quinazolin-4-yl)piperazin-1-yl)prop-2-en-1-one] the value was “+ (+indicates binding activity from 5% to 25%)”; for `C=CC(=O)N1CCN(c2ncnc3cc(-c4c(C)ccc5cn[nH]c45)c(Cl)cc23)CC1` [Compound I-268, 1-(4-(6-chloro-7-(6-methyl-1H-indazol-7-yl)quinazolin-4-yl)piperazin-1-yl)prop-2-en-1-one], “+++ (+++indicates binding activity greater than 50% and up to 75%)”.
Take `C=CC(=O)N1CCN(c2c(C#N)cnc3c(F)c(-c4c(O)ccc5ccccc45)c(Cl)cc23)CC1` [Compound I-269, 4-(4-acryloylpiperazin-1-yl)-6-chloro-8-fluoro-7-(2-hydroxynaphthalen-1-yl)quinoline-3-carbonitrile]: the Binding % result was “+++ (+++indicates binding activity greater than 50% and up to 75%)”.
Still for that read-out and setting: in the case of `C=CC(=O)N1CCN(c2c(C#N)cnc3cc(-c4c(C)ccc5[nH]ncc45)c(Cl)cc23)CC1` [Compound I-270, 4-(4-acryloylpiperazin-1-yl)-6-chloro-7-(5-methyl-1H-indazol-4-yl)quinoline-3-carbonitrile] it was “+++ (+++indicates binding activity greater than 50% and up to 75%)”.
Same read-out and setting: for `C=CC(=O)N1CCN(c2ncnc3c(F)c(-c4ccccc4F)c(C(F)(F)F)cc23)CC1` [Compound I-271] the value was “+++ (+++indicates binding activity greater than 50% and up to 75%)”; for `C=CC(=O)N1CCN(c2ncnc3c(F)c(-c4c(O)cccc4F)c(C(F)(F)F)cc23)CC1` [Compound I-273, 1-(4-(8-fluoro-7-(2-dluoro-6-hydroxyphenyl)-6-(trifluoromethyl)quinaozlin-4-yl)piperazin-1-yl)prop-2-en-1-one], “++++ (++++indicates binding activity greater than 75%)”; for `C=CC(=O)N1CCN(c2ncnc3c(F)c(-c4c(C)ccc5cn[nH]c45)c(Cl)cc23)CC1` [Compound I-274, 1-(4-(6-chloro-8-fluoro-7-(6-methyl-1H-indazol-7-yl)quinazolin-4-yl)piperazin-1-yl)prop-2-en-1-one], “++++ (++++indicates binding activity greater than 75%)”.

The test is the same for the next values; noted with them: compounds 247-342, measured at 30 min; listed as 256.
`C=CC(=O)N1CCN(c2ncnc3c(F)c(-c4cc(O)cc5ccccc45)c(Cl)cc23)CC1` [Compound I-256, 1-(4-(6-chloro-8-fluoro-7-(3-hydroxynaphthalen-1-yl)quinazolin-4-yl)piperazin-1-yl)prop-2-en-1-one]: the Binding % result was “+++ (+++indicates binding activity greater than 50% and up to 75%)”.
